According to patent US20250213452A1, “BIFUNCTIONAL PEPTIDES FOR BIOMIMETIC RECONSTRUCTION OF SILVER DIAMINE FLUORIDE TREATED DENTAL TISSUES” (University of Kansas, priority 2022, published 2025):
Where two headings read alike, the source gives them in different places. Blank lines part the entries; values can stand above or below the substance they belong to.

Assays:
[1] = cell-free assay, demineralized human dentin root surfaces; cited from earlier work
[2] = Enzyme-mediated mineralization on SDF-treated dental tissue slabs, SEM/EDS Ca/P ratio of mineral layer; set-up: species or system human; conditions: for Averaged calculated Ca/P ratio: Mineralized sample
Description: (§1) Lyophilized peptide stocks were selected and reconstituted in Milli-Q (resistance, >18 MQ) water immediately prior to experiments with both silver-coated silica substrates and slabs of dental tissue. Stock solutions were prepared to a final concentration of 100 μM peptide. Silica substrates or slabs of dental tissue were submerged into a solution containing 50 μM peptide and allowed 2-4 hours gentle shaking at room temperature to ensure the binding of AgBP. This excess concentration and incubation time was used to ensure ample peptide binding.
NaCl containing 0.002% sodium azide.
To investigate calcium phosphate nucleation facilitated by the MP, an alkaline phosphatase (AP) based mineralization model was followed.^44 This model mimics the biological process wherein inorganic phosphate is cleaved from organic phosphate by naturally occurring AP and subsequently reacts with free calcium. Briefly, control samples without peptide and test samples functionalized with MP were submerged in a remineralization buffer containing 14.4 mM β-glycerophosphate (β-GP) and 24 mM Ca^2+ in 25 mM Tris-HCl at pH 7.4. Mineralization reactions were initiated by adding alkaline phosphatase (fastAP; ThermoFisher, USA) to the solutions to achieve a final concentration of 1.4×10^−6 g/mL and allowed to react at 37° C. for 2 hours to form a calcium phosphate mineral layer on the sample surface. Samples were removed from the solution and allowed to air dry prior to microscopic and spectroscopic analyses.
For the bifunctional peptide treated group, SDF-treated dental tissues were functionalized with either 0 μM or 50 μM bifunctional peptide prior to the mineralization protocol. […] On average, the Ca/P ratios from the mineralized layer observed in both the peptide-treated and SDF-treated tissue as well as the SDF-only treated tissues, were about 0.1-0.15 less than what was obtained for the untreated and peptide-functionalized Ag-coated silica samples. The presence of calcium phosphate rich minerals in the slabs of dental tissue may alter the availability of free calcium and phosphate in the enzyme-mediated mineralization reaction. […] Differences in the mineralization may also be attributed to the anchoring effect of the AgBP peptide being bound to the SDF-treated regions of the dental tissue.

[3] = Enzyme-mediated (alkaline phosphatase) mineralization on Ag-coated silica substrates, SEM/EDS; conditions: 50 μM bifunctional peptide
Description: as §1
To confirm the selectivity and specificity for silver-binding of bifunctional peptides, preliminary studies were conducted on silver-coated silica substrates. Silica wafers were cut into 1 cm square pieces using a diamond scribe and a published protocol for […] deposition of silver onto silica was followed.^66,67 Briefly, the Si(111) wafers were cleansed in hydrogen peroxide and sulfuric acid solution (3:7) for 20 minutes, rinsed thoroughly with Milli-Q water, and dried with N2 gas prior to use. An etching step was employed prior to Ag-deposition, where a drop of 5% NH4F solution was placed on the surface of the cleaned silica substrate for 30 s and removed carefully with N2 gas. […]

[4] = SDF-treated Control
Description: Specimens of dental tissues were prepared using a protocol modified slightly from previous publications.^45 The specimens consisted of extracted human molars. […] The extracted teeth were stored at 4° C. in 0.9% wt./vol. NaCl containing 0.002% sodium azide. […] The tooth was sectioned parallel to the long axis to provide 1.4 mm thick slabs. The prepared sections were stored in a modified phosphate buffered saline (PBS) buffer (20 mM Na2HPO4, 137 mM NaCl, 2.7 mM KCl, and 1.8 mM KH2PO4, pH 7.4) at 4° C. until experimental use.
SDF was applied to dental tissue following the detailed guidelines published by the UCSF Caries Arrest Committee.^25,34 Briefly, the prepared slabs of dental tissue were removed from the modified PBS buffer, rinsed with Milli-Q purified water, and gently dried with compressed air to reveal suitable carious regions of the dental tissues. A single drop of commercially available 38% SDF solution (Dengen Caries Arrest; Dengen Dental, Bahadurgarh, Haryana, India) was placed into a fresh plastic dish. A microbrush applicator head was dipped into the solution and touched to the side of the dish to remove excess fluid by surface tension. The SDF was applied to the dental tissue, allowed to absorb for 1 minute and the treated sample was gently rinsed with Milli-Q purified water. The tissue was placed back into modified PBS buffer and incubated at 37° C. for 6 hours to mimic the oral environment and to allow for SDF activity.
To image the mineral morphology, surface coverage, and to determine the Ca/P ratios of the precipitated material, a Hitachi SU8230 Field Emission Scanning Electron Microscope (Hitachi High-Tech America, IL, USA) equipped with a silicon drift EDS detector (X-Max, Oxford Instruments, MA, USA) was used. SEM imaging was completed at 5 kV and EDS measurements made with an acceleration voltage of 10 kV to improve signal. Prior to SEM/EDS analysis, samples were sputter-coated with 5 nm iridium using a Quorum sputter coating system (Q150, Quorum, UK). EDS analysis was performed using AZtec software (Oxford Instruments, MA, USA) and values were averaged across a minimum of three regions for each sample.
Treated dental tissues were analyzed using SEM for imaging and EDS for compositional analysis. Average Ca/P molar ratios were calculated for each slab of dental tissue from both SDF-treated and untreated regions of enamel and dentin, corresponding to SDF treatment of carious dental tissues, to assess mineral formation and compositional changes on the tooth samples in the presence and absence of the bifunctional peptide.

Substance: SYEKSHSQAINTDRT [MP, mineralizing peptide domain, 15 amino acids, derived from amelogenin]
hydroxyapatite mineral layer formation [1]: regulated formation of a robust hydroxyapatite mineral layer

Averaged calculated Ca/P ratio ([2]; SDF-treated Peptide-functionalized (50 μM), Dentin): 1.291 | Averaged calculated Ca/P ratio ([2]; SDF-treated Peptide-functionalized (50 μM), Enamel): 1.338 | Averaged calculated Ca/P ratio ([2]; SDF-treated Peptide-functionalized (50 μM), SDF-stained dentin): 1.238 | Averaged calculated Ca/P ratio ([2]; SDF-treated Peptide-functionalized (50 μM), SDF-stained enamel): 1.257 | average Ca/P ratio of mineral layer ([3]; EDS): about 1.40 | mineral coverage compared to control samples ([3]; alkaline phosphatase-based mineralization, SEM): significantly higher mineral coverage
Substance: SYEKSHSQAINTDRTAPAEQLGVRKELRGV [MP_APA_AgBP, bifunctional peptide, MP and AgBP domains joined by APA spacer]
mineralization onto SDF treated dental tissues ([2]; four SDF treated slabs of carious dental tissue, bright field optical microscopy, FIG. 7): demonstrated the capacity to direct mineralization

Substance: silver diamine fluoride [SDF]
Averaged calculated Ca/P ratio ([2]; SDF-treated, 0 μM peptide, Dentin): 1.066 | Averaged calculated Ca/P ratio ([2]; SDF-treated, 0 μM peptide, Enamel): 1.092 | Averaged calculated Ca/P ratio ([2]; SDF-treated, 0 μM peptide, SDF-stained dentin): 1.137 | Averaged calculated Ca/P ratio ([2]; SDF-treated, 0 μM peptide, SDF-stained enamel): 1.100 | Averaged calculated Ca/P ratio ([4]; Dentin (untreated region)): 1.419 | Averaged calculated Ca/P ratio ([4]; Enamel (untreated region)): 1.447 | Averaged calculated Ca/P ratio ([4]; SDF-stained dentin): 1.546 | Averaged calculated Ca/P ratio ([4]; SDF-stained enamel): 1.540
